Source: ChEMBL document CHEMBL1139114, “Identification and structure-activity relationships of substituted pyridones as inhibitors of Pim-1 kinase” (Bioorg Med Chem Lett, 2007)

Key:
[1] = biological target: Serine/threonine-protein kinase pim-1 (Homo sapiens, UniProt P11309); test: Inhibition of Pim1 kinase
[2] = biological target: Serine/threonine-protein kinase pim-2 (Homo sapiens, UniProt Q9P1W9); test: Inhibition of Pim2 kinase
[3] = biological target: Dual specificity mitogen-activated protein kinase kinase 2 (Homo sapiens, UniProt P36507); test: Inhibition of MEK2 kinase
Sequence of Dual specificity mitogen-activated protein kinase kinase 2 (P36507 whole entry): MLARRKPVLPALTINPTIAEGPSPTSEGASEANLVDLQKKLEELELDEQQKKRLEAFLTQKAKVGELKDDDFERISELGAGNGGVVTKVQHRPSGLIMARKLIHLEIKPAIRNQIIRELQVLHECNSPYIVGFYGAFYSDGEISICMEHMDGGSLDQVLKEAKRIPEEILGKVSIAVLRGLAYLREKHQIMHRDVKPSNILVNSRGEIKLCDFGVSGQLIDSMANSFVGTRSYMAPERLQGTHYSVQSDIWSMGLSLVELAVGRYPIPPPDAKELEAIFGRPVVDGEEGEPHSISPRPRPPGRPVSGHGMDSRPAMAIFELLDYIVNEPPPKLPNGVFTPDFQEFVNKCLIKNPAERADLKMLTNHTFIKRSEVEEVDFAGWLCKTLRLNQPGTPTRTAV

[4] = biological target: Dual specificity mitogen-activated protein kinase kinase 1 (Homo sapiens, UniProt Q02750); test: Inhibition of MEK1 kinase
Sequence of Dual specificity mitogen-activated protein kinase kinase 1 (Q02750 whole entry): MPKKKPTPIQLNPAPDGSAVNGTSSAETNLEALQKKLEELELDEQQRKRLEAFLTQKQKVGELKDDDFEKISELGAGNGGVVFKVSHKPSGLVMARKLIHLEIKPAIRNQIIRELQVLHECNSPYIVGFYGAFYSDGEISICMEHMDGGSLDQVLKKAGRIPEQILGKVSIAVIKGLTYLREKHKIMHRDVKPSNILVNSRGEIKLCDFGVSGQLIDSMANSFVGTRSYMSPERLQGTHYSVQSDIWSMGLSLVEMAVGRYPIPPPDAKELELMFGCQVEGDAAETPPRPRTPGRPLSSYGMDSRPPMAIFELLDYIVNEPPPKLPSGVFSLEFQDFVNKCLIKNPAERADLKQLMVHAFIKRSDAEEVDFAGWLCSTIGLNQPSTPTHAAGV

Sequence of Serine/threonine-protein kinase pim-1 (P11309 whole entry): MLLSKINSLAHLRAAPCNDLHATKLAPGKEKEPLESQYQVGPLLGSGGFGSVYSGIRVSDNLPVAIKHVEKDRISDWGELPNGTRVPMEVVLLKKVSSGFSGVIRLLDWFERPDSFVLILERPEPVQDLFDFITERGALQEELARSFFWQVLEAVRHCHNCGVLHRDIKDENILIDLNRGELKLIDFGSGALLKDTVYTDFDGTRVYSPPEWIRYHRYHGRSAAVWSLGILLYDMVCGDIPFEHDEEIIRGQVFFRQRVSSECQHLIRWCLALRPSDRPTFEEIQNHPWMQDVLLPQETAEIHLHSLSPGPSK
Sequence of Serine/threonine-protein kinase pim-2 (Q9P1W9 whole entry): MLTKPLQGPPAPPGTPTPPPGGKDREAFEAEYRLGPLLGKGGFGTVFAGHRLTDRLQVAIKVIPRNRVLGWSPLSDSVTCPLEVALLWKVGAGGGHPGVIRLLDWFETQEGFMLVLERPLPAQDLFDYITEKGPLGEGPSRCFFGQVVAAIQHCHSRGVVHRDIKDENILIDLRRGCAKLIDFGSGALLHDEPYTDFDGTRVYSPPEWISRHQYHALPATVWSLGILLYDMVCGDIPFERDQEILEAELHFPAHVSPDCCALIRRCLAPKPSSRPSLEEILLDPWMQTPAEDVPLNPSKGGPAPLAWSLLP

SMILES | IC50 [1] | other results
Cc1ccc(O)c(-c2cc(-c3ccccc3)[nH]c(=O)c2C#N)c1 | 0.37 µM | –
N#Cc1c(-c2ccc(Cl)cc2)c2c([nH]c1=O)-c1ccccc1OC2 | 0.92 µM | –
N#Cc1c(-c2ccncc2)c2c([nH]c1=O)-c1ccccc1OC2 | 20 µM | –
COc1ccc(-c2cc(C(F)(F)F)c(C#N)c(=O)[nH]2)cc1Br | 1.14 µM | –
N#Cc1c(-c2ccccc2Cl)c2c([nH]c1=O)-c1ccccc1OC2 | 1.23 µM | –
CCOC(=O)C1=C2C(=O)Oc3ccccc3C2N(C)C(=O)C1 (stereo not given) | > 20 µM | –
N#Cc1c(-c2ccccc2Cl)c2c([nH]c1=O)-c1ccccc1SC2 | 20 µM | –
CCc1ccc(O)c(-c2cc(-c3cccc(Cl)c3)c(C#N)c(=O)[nH]2)c1 | 1.03 µM | –
Cc1ccc(O)c(-c2cc(-c3ccccc3)c(C#N)c(=O)[nH]2)c1 | 0.34 µM | –
N#Cc1c(-c2ccncc2)c2c([nH]c1=O)-c1ccccc1CC2 | > 20 µM | –
N#Cc1c(-c2ccccn2)c2c([nH]c1=O)-c1ccccc1OC2 | > 20 µM | –
N#Cc1c(-c2ccc(F)cc2)c2c([nH]c1=O)-c1ccccc1SC2 | > 20 µM | –
N#Cc1c(-c2ccc(O)cc2)cc(-c2ccccc2O)[nH]c1=O | 0.43 µM | –
N#Cc1c(-c2cccnc2)c2c([nH]c1=O)-c1ccccc1SC2 | 4.79 µM | –
N#Cc1c(-c2ccccc2)cc(-c2cc(Br)ccc2O)[nH]c1=O | – | IC50 [2]: > 20 µM; IC50 [3]: > 20 µM; IC50 [4]: > 20 µM
COc1ccc(-c2c3c([nH]c(=O)c2C#N)-c2ccccc2OC3)cc1 | > 20 µM | –
Nc1n[nH]c2nc(-c3cc(Br)ccc3O)cc(-c3ccccc3)c12 | 1.77 µM | –
N#Cc1c(-c2ccccc2)cc(-c2ccc(O)cc2)nc1N | 4.41 µM | –
